Source: the supplement of paper PMC8671470
Structures can show the parent of a compound that is named as a salt.

Columns and labels:
Experiment in all cases: cell viability (% survival relative to DMSO control); higher = less cytotoxic
Settings in all cases: 72 h
[1] = test system: myeloid leukemia patient primary cells Pat.7
Summary of the method: (§1)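 Where an area under the curve appears, it was computed with the drc and PharmacoGx R packages from log-logistic fits. Those fits used four parameters. The underlying viability data came from CellTiter-Glo after 72 h, normalised to DMSO and 10 μM proteasome-inhibitor wells, with thawed, Ficoll-purified AML or CML patient mononuclear cells at 10,000 cells/well in RPMI 1640 with 10% FBS on 384-well plates pre-printed with 70 compounds at five tenfold concentrations (1–10,000 nM) in duplicate.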

[2] = test system: myeloid leukemia patient primary cells Pat.14
Summary of the method: as §1

[3] = test system: myeloid leukemia patient primary cells Pat.2
Summary of the method: as §1

[4] = test system: myeloid leukemia patient primary cells Pat.8
Summary of the method: as §1

[5] = test system: myeloid leukemia patient primary cells Pat.15
Summary of the method: as §1

[6] = test system: myeloid leukemia patient primary cells Pat.4
Summary of the method: as §1

[7] = test system: myeloid leukemia patient primary cells Pat.5
Summary of the method: as §1

[8] = test system: myeloid leukemia patient primary cells Pat.6
Summary of the method: as §1

[9] = test system: HL-60
Experimental: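 8x8 drug-combination matrices (0-5000 nM; rosiglitazone and lestaurtinib 0-1000 nM) were run in HL-60 cells for 72 h with a CellTiter-Glo read-out. Survival is normalised to DMSO and 10 µM bortezomib and clipped at 100%. Bliss synergy was analysed in SynergyFinder.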

CC(C)(Cc1ccccc1)NCC(O)c1ccc(O)c(NS(C)(=O)=O)c1 (centres undefined) [Zinterol hydrochloride]
cell viability [%]
Settings	[1]	[2]	[3]	[4]	[5]	[6]	[7]	[8]
1 nM	54.3	73.4	85.5	88.5	87	87.7	17	> 100
10 nM	> 100	87.2	96.4	96.4	> 100	94.7	> 100	> 100
100 nM	76.6	91.3	86	> 100	95.8	82.8	73	> 100
1000 nM	> 100	90.7	99.7	85.3	95.8	93.3	99.9	> 100
10000 nM	> 100	75.6	93	85.5	68.9	97.3	93.9	> 100

c1ccc2c(c1)SCc1c-2[nH]c2ccccc12
cell viability [%]
Settings	[1]	[2]	[3]	[4]	[5]	[6]	[7]	[8]
1 nM	> 100	95.4	96.8	92.5	94.1	95.6	82.4	98.8
10 nM	72.5	54.1	89.3	67.3	97.3	83.4	5.49	82.9
100 nM	> 100	67.2	97.2	69.9	89.1	91	44.4	95
1000 nM	41.6	4.19	86.9	75.9	59.8	67.8	7.88	88.3
10000 nM	< 0	6.72	3.43	0.503	0.46	< 0	2.27	0.384

O=C(c1c2ccccc2cc2ccccc12)N1CCC(N2CCC[C@@H](C(=O)N3CCOCC3)C2)CC1
cell viability [%]
Settings	[1]	[2]	[3]	[4]	[5]	[6]	[7]	[8]
1 nM	94.1	88.9	94.4	87.7	93.9	92.6	89.3	99.8
10 nM	87.2	98.9	99.4	> 100	94.5	95	67.2	96.8
100 nM	87.3	98.2	98	93.3	84.5	90.2	94.9	96.6
1000 nM	19	56.4	75.4	69.3	71.3	65.1	0.265	74.9
10000 nM	76.8	94.4	98.1	87.5	88.6	60.7	69.8	96.6

Cc1nnc(-c2ccc(N3CCC(Oc4ccccc4C(F)(F)F)CC3)nn2)s1 [MF-438]
cell viability [%]
Settings	[1]	[2]	[3]	[4]	[5]	[6]	[7]	[8]
1 nM	> 100	85	> 100	86.9	97.4	83.7	32.8	95.4
10 nM	93.3	> 100	99.8	94.5	89.5	98.5	93.8	98.9
100 nM	99.7	87.8	95.4	77.7	98.7	87.9	67.7	99.5
1000 nM	74.4	83.5	87.6	86.9	86.9	85.8	46.4	83
10000 nM	41.2	92.2	89.7	94.9	69.8	68.8	27.4	85.3

CN(C)CCNC(=O)c1cccn2c(=O)c3cc4ccccc4cc3nc12 [Bmh-21] + O=C(O)CC[N+](=O)[O-] [3-nitropropionic acid]
cell viability [%], [9]
Settings	drug1 concentration 5 nM	drug1 concentration 10 nM	drug1 concentration 50 nM	drug1 concentration 100 nM	drug1 concentration 500 nM	drug1 concentration 1000 nM	drug1 concentration 5000 nM
drug2 concentration 5 nM	76.1	> 100	> 100	> 100	34.7	29.4	11.4
drug2 concentration 10 nM	85.5	> 100	> 100	89.3	54.7	48.5	34
drug2 concentration 50 nM	90.2	83.1	> 100	> 100	57	52.6	7.17
drug2 concentration 100 nM	> 100	> 100	> 100	> 100	45.9	28.8	4.7
drug2 concentration 500 nM	> 100	> 100	81.7	> 100	53.9	70	13.8
drug2 concentration 1000 nM	> 100	62.9	> 100	> 100	77.4	1.67	50.4
drug2 concentration 5000 nM	> 100	> 100	68.7	> 100	22	24.2	0

NS(=O)(=O)c1ccc(S(=O)(=O)Nc2cccc3c(Cl)c[nH]c23)cc1 [Indisulam]
cell viability [%]
Settings	[1]	[2]	[3]	[4]	[5]	[6]	[7]	[8]
1 nM	93.3	75.2	> 100	89.9	90.2	91.4	47.7	99.9
10 nM	77.1	84.3	88.2	91.6	90.8	87.2	70.8	98.2
100 nM	91.3	85.7	95.8	97.5	75.9	86	62.1	> 100
1000 nM	43.1	62.6	96.9	79.2	79.2	28	17.9	81.5
10000 nM	21.2	66.6	67.1	55.5	44.1	9.12	12.4	63.2

O=C(Cc1cccc(OC(F)(F)F)c1)Nc1ccc(CCCCc2nnc(NC(=O)Cc3ccccn3)s2)nn1 [CB-839]
cell viability [%]
Settings	[1]	[2]	[3]	[4]	[5]	[6]	[7]	[8]
1 nM	58.6	75.6	86.8	82.7	92.4	92	17.1	91.7
10 nM	74.7	69.4	91.3	86.7	89.2	91.5	53.9	94.9
100 nM	6.64	39.7	78.1	76.8	73.2	57.4	2.39	79.1
1000 nM	21.2	41.4	87	87.8	40.2	61	5.69	84.9
10000 nM	38.3	78.6	88.3	81	36.6	75.4	19.5	90.9

Oc1ncc(F)c(O)n1 [5-fluorouracil]
cell viability [%]
Settings	[1]	[2]	[3]	[4]	[5]	[6]	[7]	[8]
1 nM	89.7	94.6	95.9	85.8	83.4	90.8	88.1	> 100
10 nM	83.9	87	94.9	86.3	91.5	88.4	90.3	96.6
100 nM	82.8	90.3	99.1	94.5	96.7	92.1	84.7	95.8
1000 nM	92.8	90.2	88.9	80.1	91	88.9	61.3	99.3
10000 nM	50.8	84.9	97.5	98.7	93.9	60.6	13.9	98.5

CCC(CC#N)OC(=O)N[C@@H](C)c1cccc(NC(=O)Nc2ccc(-c3cnco3)c(OC)c2)c1 (stereo in doubt) [AVN-944]
cell viability [%]
Settings	[1]	[2]	[3]	[4]	[5]	[6]	[7]	[8]
1 nM	98.1	88.2	> 100	82.5	94.9	86	56.9	97.1
10 nM	91.5	97.5	98.9	92.3	> 100	90.7	45.4	90.8
100 nM	25.3	84.9	81.5	86.4	83.3	92.9	40.4	92.9
1000 nM	17.6	63.5	81.8	68.7	89.7	63	9.12	87.4
10000 nM	< 0	34.3	83.1	58.1	71.1	33.4	5.69	64

O=C(/C=C/c1cccnc1)NCCCCC1CCN(C(=O)c2ccccc2)CC1 [Daporinad]
cell viability [%]
Settings	[1]	[2]	[3]	[4]	[5]	[6]	[7]	[8]
1 nM	6.69	17.1	91.1	98.3	80.9	38.2	0.265	60.3
10 nM	< 0	1.32	30.5	11	24.2	3.86	< 0	51.7
100 nM	< 0	2.09	11.7	4.49	0.879	2.67	9.08	24.6
1000 nM	< 0	< 0	9.71	10.4	1.32	2.08	< 0	25.6
10000 nM	< 0	0.671	6.63	0.503	0.659	0.709	< 0	19.4

O=C(Oc1cccc(F)c1OC(=O)c1cccc(O)c1)c1cccc(O)c1 [WZB117]
cell viability [%]
Settings	[1]	[2]	[3]	[4]	[5]	[6]	[7]	[8]
1 nM	89.6	97.9	99.7	95.5	96.4	94.5	96.4	96.3
10 nM	97.1	61.5	83.5	67.8	78.9	82.1	23.7	87.9
100 nM	85.6	74	90.5	79.7	86.1	85.2	4.78	87.1
1000 nM	87.9	90.2	93.6	51.9	75.7	99	26.1	93.3
10000 nM	8.3	5.34	77.1	11	61.3	17.3	3.37	62.6
